Data taken from ChEMBL document CHEMBL5321196, “Fluorescent and theranostic probes for imaging nicotinamide phosphoribosyl transferase (NAMPT)” (Eur J Med Chem, 2023).

Tests used:
[1] = target: T1, Nicotinamide phosphoribosyltransferase (Homo sapiens, UniProt P43490); experiment: Inhibition of NAMPT in human A2780 cells measured at 6 hrs
[2] = target: T1, Nicotinamide phosphoribosyltransferase; experiment: Inhibition of NAMPT in human A2780 cells measured at 24 hrs
[3] = target: T1, Nicotinamide phosphoribosyltransferase; experiment: Inhibition of NAMPT in human A2780 cells measured at 48 hrs

T1 sequence (P43490 whole entry): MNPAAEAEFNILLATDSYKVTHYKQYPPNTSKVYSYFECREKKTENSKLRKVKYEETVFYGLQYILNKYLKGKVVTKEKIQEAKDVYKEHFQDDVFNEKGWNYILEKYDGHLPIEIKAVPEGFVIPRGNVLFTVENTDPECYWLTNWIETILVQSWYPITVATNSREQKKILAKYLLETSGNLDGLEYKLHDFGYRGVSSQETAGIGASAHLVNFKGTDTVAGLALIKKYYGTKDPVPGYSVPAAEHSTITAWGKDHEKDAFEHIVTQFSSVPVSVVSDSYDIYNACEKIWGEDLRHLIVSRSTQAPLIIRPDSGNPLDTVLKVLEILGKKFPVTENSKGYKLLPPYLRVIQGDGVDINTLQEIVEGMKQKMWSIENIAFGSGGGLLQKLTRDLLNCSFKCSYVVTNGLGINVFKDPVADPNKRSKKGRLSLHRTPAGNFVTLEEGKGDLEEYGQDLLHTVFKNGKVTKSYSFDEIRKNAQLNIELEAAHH

IC50 [1]: > 10 µM
IC50 [2]: 7.18 µM
IC50 [3]: 4.05 µM
SMILES: O=S(=O)(c1ccc(NC(=S)NCc2cccnc2)cc1)N1CCNCC1
